Laboratory results published in a compilation of properties of binary mixtures (doi:10.1021/je200600p).

Assay: xn = mol fraction of the nth substance listed
Conditions: 101 kPa

CCCC[n+]1ccn(C)c1.COP(=O)([O-])OC + CCO
viscosity [mPa·s]
Conditions	293.15 K	298.15 K	303.15 K	308.15 K	313.15 K	318.15 K	323.15 K	328.15 K	333.15 K
x2 = 0.201	396	284	210	–	119	92.7	73.3	59.06	48.16
x2 = 0.399	–	–	88.9	69.9	–	–	–	–	–
x2 = 0.6	42.1	34.3	28.18	23.56	19.87	16.97	14.59	12.66	11.06
x2 = 0.8	8.84	7.704	6.718	–	–	4.711	–	–	3.454

CC[n+]1ccn(C)c1.COP(=O)([O-])OC + CCO
viscosity [mPa·s]
Conditions	293.15 K	298.15 K	303.15 K	308.15 K	313.15 K	318.15 K	323.15 K	328.15 K	333.15 K
x2 = 0.199	190.6	142.7	109.5	85.8	68.4	55.53	45.75	–	32.27
x2 = 0.398	87.3	–	–	45	37.37	–	26.44	22.64	19.56
x2 = 0.598	27.63	–	19.83	17.05	14.8	–	11.36	10.04	8.951
x2 = 0.798	6.898	6.127	5.471	–	4.425	4.004	3.634	3.318	3.037

CCCC[n+]1ccn(C)c1.COP(=O)([O-])OC + O
viscosity [mPa·s]
Conditions	293.15 K	298.15 K	303.15 K	308.15 K	313.15 K	318.15 K	323.15 K	328.15 K	333.15 K
x2 = 0.201	594	410	–	212	157.5	119.7	92.7	73.1	58.55
x2 = 0.398	356	–	181.6	134.7	102	–	62.07	–	40.4
x2 = 0.601	148.3	108.5	–	62.54	48.93	39.05	31.67	26.05	21.69
x2 = 0.799	39.94	30.68	24.17	19.42	–	13.14	11.05	9.37	8.037

CCCC[n+]1ccn(C)c1.COP(=O)([O-])OC + CO
viscosity [mPa·s]
Conditions	293.15 K	298.15 K	303.15 K	308.15 K	313.15 K	318.15 K	323.15 K	328.15 K	333.15 K
x2 = 0.203	395	282	206	154.4	117.9	91.5	72.5	58.3	47.6
x2 = 0.404	150.1	113.3	87.5	–	54.86	–	36.49	30.37	25.51
x2 = 0.6	38.6	31.59	26.19	21.99	18.59	15.94	13.78	11.99	10.48
x2 = 0.8	–	6.267	5.536	4.923	–	3.972	3.665	3.338	3.051

CC[n+]1ccn(C)c1.COP(=O)([O-])OC + O
viscosity [mPa·s]
Conditions	293.15 K	298.15 K	303.15 K	308.15 K	313.15 K	318.15 K	323.15 K	328.15 K	333.15 K
x2 = 0.198	–	–	–	119.7	93	–	59.37	48.61	–
x2 = 0.399	194.9	143.4	108.1	83.5	65.74	–	42.99	–	29.81
x2 = 0.6	98.6	74.5	57.7	45.45	36.43	29.68	24.55	20.58	17.46
x2 = 0.799	32.35	25.47	20.44	16.68	13.81	–	9.81	8.405	7.264

CC[n+]1ccn(C)c1.COP(=O)([O-])OC + CO
viscosity [mPa·s]
Conditions	293.15 K	298.15 K	303.15 K	308.15 K	313.15 K	318.15 K	323.15 K	328.15 K	333.15 K
x2 = 0.198	197.6	147.8	112.7	88	70.2	56.83	46.73	39.02	32.96
x2 = 0.399	77.9	61.74	49.69	40.72	33.84	28.41	24.24	–	–
x2 = 0.598	24.32	–	17.64	15.26	13.28	11.67	10.3	9.132	8.188
x2 = 0.799	5.308	4.769	4.309	3.911	3.566	–	2.998	2.763	2.555
